# Laboratory results published in ChEMBL document CHEMBL1649080, “Identification of a potent Janus kinase 3 inhibitor with high selectivity within the Janus kinase family” (J Med Chem, 2011).
# Experiments:
# [1] = molecular target: T1, Tyrosine-protein kinase JAK3 (Homo sapiens, UniProt P52333); format: cell-based
# T1 sequence (P52333 whole entry): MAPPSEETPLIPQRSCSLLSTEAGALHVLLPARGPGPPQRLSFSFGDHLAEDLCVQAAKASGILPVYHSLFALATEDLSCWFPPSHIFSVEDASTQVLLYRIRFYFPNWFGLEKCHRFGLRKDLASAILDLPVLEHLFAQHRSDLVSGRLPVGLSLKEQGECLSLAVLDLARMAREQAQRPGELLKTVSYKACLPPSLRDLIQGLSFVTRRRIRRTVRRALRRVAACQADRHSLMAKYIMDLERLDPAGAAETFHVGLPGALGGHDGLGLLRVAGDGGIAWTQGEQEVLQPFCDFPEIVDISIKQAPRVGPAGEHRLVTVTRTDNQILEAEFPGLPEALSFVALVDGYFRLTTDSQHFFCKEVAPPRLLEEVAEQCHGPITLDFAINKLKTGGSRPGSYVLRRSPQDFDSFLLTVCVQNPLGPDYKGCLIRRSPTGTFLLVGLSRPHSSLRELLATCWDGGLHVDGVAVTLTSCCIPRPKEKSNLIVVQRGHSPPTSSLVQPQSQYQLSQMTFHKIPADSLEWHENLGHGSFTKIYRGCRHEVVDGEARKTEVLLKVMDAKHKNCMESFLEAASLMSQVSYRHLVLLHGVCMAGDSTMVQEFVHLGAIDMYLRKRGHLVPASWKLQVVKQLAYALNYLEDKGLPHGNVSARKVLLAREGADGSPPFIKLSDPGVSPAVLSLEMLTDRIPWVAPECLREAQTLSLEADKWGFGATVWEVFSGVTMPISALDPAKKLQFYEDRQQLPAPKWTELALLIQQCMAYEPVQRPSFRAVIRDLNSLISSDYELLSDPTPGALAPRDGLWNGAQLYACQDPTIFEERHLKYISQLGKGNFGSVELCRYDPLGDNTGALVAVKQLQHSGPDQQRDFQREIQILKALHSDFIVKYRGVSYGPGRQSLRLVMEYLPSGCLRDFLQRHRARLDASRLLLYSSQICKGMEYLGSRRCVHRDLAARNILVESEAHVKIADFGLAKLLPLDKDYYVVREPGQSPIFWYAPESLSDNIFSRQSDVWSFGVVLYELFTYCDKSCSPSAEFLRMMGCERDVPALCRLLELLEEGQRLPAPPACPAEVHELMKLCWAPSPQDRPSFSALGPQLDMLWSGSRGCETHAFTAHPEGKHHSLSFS
# [2] = molecular target: Tyrosine-protein kinase JAK2 (Homo sapiens, UniProt O60674)
# [3] = molecular target: Tyrosine-protein kinase JAK1 (Homo sapiens, UniProt P23458)
# [4] = molecular target: Non-receptor tyrosine-protein kinase TYK2 (Homo sapiens, UniProt P29597)
# Jurkat [5] = details: human, 0.33 µM
# Description: Drug uptake in human Jurkat cells assessed as whole cell extract measured per 50000 cells at 0.33 uM in growth medium by LC-MS/MS analysis
# Jurkat [6] = test: cells; details: Homo sapiens
# Description: Inhibition of antiTCR/antiCD28-stimulated IL2 production in human Jurkat cells by measuring bioluminescence
# Jurkat [7] = details: human, 1 µM
# Description: Drug uptake in human Jurkat cells assessed as whole cell extract measured per 50000 cells at 1 uM in growth medium by LC-MS/MS analysis
# CTLL [8] = details: mouse, 1 µM
# Description: Drug uptake in mouse CTLL cells assessed as whole cell extract measured per 50000 cells at 1 uM in growth medium by LC-MS/MS analysis
# [9] = molecular target: Glycogen synthase kinase-3 beta (Homo sapiens, UniProt P49841); test: Inhibition of GSK3-beta
# CTLL [10] = details: mouse, 3.3 µM
# Description: Drug uptake in mouse CTLL cells assessed as whole cell extract measured per 50000 cells at 3.3 uM in growth medium by LC-MS/MS analysis
# [11] = molecular target: T2, Tyrosine-protein kinase JAK3 (Mus musculus, UniProt Q62137)
# T2 sequence (Q62137 whole entry): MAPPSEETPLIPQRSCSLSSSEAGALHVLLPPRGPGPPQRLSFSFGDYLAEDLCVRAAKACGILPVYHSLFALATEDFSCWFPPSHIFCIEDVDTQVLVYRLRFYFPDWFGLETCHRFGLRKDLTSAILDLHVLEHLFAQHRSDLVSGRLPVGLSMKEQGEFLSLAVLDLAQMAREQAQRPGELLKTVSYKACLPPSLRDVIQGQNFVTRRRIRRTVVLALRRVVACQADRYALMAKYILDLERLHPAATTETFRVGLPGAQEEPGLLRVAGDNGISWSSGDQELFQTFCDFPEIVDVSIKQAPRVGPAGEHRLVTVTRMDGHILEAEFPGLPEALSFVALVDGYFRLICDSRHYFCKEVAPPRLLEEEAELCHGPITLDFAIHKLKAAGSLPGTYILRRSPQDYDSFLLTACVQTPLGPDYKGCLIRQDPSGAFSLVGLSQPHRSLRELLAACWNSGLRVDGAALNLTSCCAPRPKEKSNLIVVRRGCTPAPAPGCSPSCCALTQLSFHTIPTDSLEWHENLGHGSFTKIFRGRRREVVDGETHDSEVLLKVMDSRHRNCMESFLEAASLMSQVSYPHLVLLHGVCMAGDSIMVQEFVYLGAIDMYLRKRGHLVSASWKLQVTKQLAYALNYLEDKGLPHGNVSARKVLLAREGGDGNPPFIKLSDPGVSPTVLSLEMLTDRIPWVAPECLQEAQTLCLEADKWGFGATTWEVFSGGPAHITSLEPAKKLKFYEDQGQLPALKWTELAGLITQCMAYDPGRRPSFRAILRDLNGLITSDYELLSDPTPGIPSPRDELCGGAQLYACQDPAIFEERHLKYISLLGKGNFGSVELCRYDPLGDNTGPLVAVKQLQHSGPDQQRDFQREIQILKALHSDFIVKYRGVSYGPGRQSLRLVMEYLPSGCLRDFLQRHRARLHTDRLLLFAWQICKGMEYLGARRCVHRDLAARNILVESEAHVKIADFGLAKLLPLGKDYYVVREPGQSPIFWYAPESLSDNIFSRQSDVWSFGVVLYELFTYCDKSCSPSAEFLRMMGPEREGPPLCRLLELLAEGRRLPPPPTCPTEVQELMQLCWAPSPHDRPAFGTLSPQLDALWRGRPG
# Description: Inhibition of Jak3-mediated IL2-induced Stat5 phosphorylation in mouse CTLL cells by cell-based assay
# Jurkat [12] = details: human, 10 µM
# Description: Drug uptake in human Jurkat cells assessed as whole cell extract measured per 50000 cells at 10 uM in growth medium by LC-MS/MS analysis
# Jurkat [13] = details: human, 3.3 µM
# Description: Drug uptake in human Jurkat cells assessed as whole cell extract measured per 50000 cells at 3.3 uM in growth medium by LC-MS/MS analysis
# CTLL [14] = details: mouse, 10 µM
# Description: Drug uptake in mouse CTLL cells assessed as whole cell extract measured per 50000 cells at 10 uM in growth medium by LC-MS/MS analysis
# [15] = molecular target: Protein kinase C alpha type (Homo sapiens, UniProt P17252); test: Inhibition of PKCalpha
# CTLL [16] = details: mouse, 0.33 µM
# Description: Drug uptake in mouse CTLL cells assessed as whole cell extract measured per 50000 cells at 0.33 uM in growth medium by LC-MS/MS analysis
# in vitro = details: human, Caco-2
# [17] = molecular target: Protein kinase C theta type (Homo sapiens, UniProt Q04759); test: Inhibition of PKCtheta
# Sequence of Protein kinase C theta type (Q04759 whole entry): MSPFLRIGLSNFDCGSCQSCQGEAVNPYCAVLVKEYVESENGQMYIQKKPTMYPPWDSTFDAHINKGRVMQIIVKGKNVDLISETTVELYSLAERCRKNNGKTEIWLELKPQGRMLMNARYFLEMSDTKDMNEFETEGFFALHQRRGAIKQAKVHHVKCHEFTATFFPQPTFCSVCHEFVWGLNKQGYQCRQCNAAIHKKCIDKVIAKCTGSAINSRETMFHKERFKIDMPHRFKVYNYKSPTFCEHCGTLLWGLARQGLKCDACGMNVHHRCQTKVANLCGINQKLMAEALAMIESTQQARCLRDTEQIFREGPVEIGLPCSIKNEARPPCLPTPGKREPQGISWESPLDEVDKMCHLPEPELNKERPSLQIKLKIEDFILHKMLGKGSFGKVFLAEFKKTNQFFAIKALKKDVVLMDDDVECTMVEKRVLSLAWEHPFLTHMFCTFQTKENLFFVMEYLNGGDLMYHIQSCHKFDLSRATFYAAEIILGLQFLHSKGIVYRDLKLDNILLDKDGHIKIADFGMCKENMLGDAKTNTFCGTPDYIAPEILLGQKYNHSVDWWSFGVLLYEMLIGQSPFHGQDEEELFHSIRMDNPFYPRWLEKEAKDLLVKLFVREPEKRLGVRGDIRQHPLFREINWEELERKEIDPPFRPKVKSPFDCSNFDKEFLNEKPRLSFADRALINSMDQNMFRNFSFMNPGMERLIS
# Sequence of Non-receptor tyrosine-protein kinase TYK2 (P29597 whole entry): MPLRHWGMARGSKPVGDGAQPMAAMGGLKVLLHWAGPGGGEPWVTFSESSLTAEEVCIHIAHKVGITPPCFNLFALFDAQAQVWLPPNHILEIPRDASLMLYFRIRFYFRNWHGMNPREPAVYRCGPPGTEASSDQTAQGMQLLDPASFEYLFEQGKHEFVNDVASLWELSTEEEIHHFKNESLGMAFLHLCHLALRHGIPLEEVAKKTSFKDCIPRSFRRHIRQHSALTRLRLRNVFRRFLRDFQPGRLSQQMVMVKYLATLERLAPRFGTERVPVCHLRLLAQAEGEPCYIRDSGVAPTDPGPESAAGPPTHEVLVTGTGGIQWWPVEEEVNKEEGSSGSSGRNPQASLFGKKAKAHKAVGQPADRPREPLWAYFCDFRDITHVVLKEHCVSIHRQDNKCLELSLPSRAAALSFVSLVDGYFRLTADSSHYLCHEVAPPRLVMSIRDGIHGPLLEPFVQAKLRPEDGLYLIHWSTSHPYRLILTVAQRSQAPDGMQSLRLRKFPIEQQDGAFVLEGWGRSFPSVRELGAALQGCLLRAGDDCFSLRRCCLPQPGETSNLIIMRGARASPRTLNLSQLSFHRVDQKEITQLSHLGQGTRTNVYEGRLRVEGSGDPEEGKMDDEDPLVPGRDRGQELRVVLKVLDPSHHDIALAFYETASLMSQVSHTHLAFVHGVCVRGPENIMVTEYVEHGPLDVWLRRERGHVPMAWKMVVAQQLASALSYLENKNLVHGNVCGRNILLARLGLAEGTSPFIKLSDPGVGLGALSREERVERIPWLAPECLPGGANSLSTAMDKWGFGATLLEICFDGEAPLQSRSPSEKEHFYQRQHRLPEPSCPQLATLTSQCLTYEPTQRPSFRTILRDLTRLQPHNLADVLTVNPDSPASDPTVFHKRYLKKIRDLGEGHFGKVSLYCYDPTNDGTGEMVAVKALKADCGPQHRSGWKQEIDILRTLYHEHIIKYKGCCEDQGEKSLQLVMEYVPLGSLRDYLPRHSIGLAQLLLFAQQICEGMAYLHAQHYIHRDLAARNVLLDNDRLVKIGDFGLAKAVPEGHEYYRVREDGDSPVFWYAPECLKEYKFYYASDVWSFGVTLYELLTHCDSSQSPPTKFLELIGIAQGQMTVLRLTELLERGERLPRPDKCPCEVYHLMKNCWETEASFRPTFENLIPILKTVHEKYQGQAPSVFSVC
# Sequence of Tyrosine-protein kinase JAK1 (P23458 whole entry): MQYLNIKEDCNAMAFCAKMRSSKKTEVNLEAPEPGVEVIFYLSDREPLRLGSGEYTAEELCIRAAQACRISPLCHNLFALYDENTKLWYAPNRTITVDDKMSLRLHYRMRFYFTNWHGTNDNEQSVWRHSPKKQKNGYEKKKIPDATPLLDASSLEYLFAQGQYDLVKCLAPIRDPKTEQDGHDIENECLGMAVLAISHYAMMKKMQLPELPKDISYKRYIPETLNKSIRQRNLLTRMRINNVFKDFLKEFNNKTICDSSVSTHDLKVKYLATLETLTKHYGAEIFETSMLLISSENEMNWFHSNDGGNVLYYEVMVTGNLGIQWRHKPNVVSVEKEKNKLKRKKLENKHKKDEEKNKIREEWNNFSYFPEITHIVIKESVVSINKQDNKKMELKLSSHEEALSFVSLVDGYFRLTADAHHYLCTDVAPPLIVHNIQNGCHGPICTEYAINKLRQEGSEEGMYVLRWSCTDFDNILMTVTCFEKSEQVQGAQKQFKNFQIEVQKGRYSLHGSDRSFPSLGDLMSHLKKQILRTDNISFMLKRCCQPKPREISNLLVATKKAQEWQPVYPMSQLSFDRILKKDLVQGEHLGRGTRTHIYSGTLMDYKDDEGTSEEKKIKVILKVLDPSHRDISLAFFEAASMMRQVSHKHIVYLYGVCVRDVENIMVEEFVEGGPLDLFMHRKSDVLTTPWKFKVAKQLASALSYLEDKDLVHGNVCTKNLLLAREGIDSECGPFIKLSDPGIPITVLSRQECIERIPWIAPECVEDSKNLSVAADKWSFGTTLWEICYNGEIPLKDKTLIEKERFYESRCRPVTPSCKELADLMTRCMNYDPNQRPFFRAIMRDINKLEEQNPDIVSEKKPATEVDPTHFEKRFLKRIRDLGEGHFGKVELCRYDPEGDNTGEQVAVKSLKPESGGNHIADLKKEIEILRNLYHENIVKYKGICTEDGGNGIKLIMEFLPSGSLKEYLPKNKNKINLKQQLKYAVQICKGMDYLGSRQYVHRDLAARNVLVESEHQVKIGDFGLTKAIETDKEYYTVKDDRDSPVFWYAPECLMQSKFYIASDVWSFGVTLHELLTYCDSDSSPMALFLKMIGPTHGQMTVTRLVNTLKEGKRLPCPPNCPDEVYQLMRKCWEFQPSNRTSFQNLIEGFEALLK
# Sequence of Tyrosine-protein kinase JAK2 (O60674 whole entry): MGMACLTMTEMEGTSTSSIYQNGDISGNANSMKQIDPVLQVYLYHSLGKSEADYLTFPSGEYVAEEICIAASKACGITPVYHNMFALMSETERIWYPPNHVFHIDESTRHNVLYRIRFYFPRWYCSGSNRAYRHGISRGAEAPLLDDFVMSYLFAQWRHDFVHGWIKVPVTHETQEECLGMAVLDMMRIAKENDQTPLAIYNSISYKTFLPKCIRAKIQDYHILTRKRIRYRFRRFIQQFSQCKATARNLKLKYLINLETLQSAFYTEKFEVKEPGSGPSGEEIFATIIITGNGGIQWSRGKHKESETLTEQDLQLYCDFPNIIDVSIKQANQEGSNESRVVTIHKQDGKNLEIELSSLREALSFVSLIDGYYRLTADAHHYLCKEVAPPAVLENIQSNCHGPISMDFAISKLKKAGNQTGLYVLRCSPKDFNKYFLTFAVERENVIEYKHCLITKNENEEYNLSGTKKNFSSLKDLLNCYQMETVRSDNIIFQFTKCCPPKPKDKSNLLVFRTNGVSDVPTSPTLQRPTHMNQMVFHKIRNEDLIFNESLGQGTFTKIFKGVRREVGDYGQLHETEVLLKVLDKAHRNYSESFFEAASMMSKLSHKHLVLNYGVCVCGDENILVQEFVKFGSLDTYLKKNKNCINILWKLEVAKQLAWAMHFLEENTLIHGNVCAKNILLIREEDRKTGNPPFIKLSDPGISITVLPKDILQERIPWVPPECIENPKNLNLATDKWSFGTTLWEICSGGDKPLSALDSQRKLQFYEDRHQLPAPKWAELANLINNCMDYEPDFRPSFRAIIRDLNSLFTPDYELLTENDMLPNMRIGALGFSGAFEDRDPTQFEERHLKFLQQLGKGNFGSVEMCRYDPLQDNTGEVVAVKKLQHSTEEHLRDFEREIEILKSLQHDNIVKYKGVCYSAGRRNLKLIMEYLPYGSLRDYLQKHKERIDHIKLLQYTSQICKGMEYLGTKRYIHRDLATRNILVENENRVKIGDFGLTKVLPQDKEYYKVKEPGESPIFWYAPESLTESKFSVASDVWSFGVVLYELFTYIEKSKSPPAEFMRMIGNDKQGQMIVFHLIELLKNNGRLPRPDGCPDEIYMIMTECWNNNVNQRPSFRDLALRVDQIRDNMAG
IC50 [1] [µM],IC50 [2] [µM],IC50 [3] [µM],IC50 [4] [µM],SMILES,further results
> 10,> 10,> 10,> 10,O=C1NC(=O)C(c2c[nH]c3ccccc23)=C1c1cc(F)ccc1C(F)(F)F,–
0.133,4.7,0.737,> 10,O=C1NC(=O)C(c2c[nH]c3ccccc23)=C1c1cc(N2CCNCC2)ccc1C(F)(F)F,–
0.036,1.44,0.754,5.04,O=CN1CCN(c2ccc(C(F)(F)F)c(C3=C(c4c[nH]c5ccccc45)C(=O)NC3=O)c2)CC1,–
0.423,9.15,4.7,> 10,CN(C)c1ccc(C(F)(F)F)c(C2=C(c3c[nH]c4ccccc34)C(=O)NC2=O)c1,–
0.46,> 10,6.5,> 10,O=C1NC(=O)C(c2c[nH]c3ccccc23)=C1c1cc(N2CCOCC2)ccc1C(F)(F)F,–
–,–,–,–,CC(C)(O)C(=O)N1CCN(c2ccc(C(F)(F)F)c(C3=C(c4c[nH]c5ccccc45)C(=O)NC3=O)c2)CC1,Drug uptake (Jurkat [5]): 2.4 pmol; IC50 (Jurkat [6]): 0.689 µM; Drug uptake (Jurkat [7]): 7.88 pmol; Drug uptake (CTLL [8]): 10.97 pmol; IC50 [9]: 0.003 µM; Drug uptake (CTLL [10]): 31.27 pmol; IC50 [11]: 1.29 µM; Drug uptake (Jurkat [12]): 55.58 pmol; Drug uptake (Jurkat [13]): 23.48 pmol; Drug uptake (CTLL [14]): 64.33 pmol; IC50 [15]: 0.013 µM; Drug uptake (CTLL [16]): 3.12 pmol; Papp A→B (in vitro): 3 ×10⁻⁶ cm/s; IC50 [17]: 0.068 µM
–,0.33,0.253,4.33,O=C1CCN(c2ncc(C(F)(F)F)c(C3=C(c4c[nH]c5ccccc45)C(=O)NC3=O)n2)CC1,–
